The test has as its target T1, human type 1 glycine transporter (GlyT1) (Homo sapiens, UniProt P48067).
T1 construct: T98G cells (glioma cells) expressing human type 1 glycine transporter (GlyT1) were used
T1 sequence (P48067 1-706): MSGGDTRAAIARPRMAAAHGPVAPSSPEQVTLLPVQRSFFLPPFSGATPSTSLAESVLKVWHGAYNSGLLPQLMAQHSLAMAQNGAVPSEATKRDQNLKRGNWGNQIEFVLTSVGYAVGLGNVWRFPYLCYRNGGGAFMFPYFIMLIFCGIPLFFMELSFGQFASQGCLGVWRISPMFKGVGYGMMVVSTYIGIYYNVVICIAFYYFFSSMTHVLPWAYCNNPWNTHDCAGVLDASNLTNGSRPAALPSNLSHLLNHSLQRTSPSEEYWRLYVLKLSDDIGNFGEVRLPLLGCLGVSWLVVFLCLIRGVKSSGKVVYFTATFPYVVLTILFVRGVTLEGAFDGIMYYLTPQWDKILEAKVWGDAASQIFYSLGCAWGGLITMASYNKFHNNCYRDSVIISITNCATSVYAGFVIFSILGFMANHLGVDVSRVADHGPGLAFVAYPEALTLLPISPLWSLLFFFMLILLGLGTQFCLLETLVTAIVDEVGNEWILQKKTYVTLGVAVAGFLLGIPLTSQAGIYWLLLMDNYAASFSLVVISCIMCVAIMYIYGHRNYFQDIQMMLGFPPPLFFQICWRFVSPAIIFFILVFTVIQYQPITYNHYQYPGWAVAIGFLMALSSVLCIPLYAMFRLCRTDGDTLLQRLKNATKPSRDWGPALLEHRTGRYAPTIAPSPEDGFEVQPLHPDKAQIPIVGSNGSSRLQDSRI
The test can be described thus: Glycine uptake inhibition experiment ([3H]glycine uptake). In kind it is cell-based. A digest of the protocol: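 T98G glioma cells expressing human GlyT1 were pretreated 10 min with compound in HEPES buffer pH 7.4 (0.2% BSA), then incubated with compound plus 250 nM final [3H]glycine for 15 min at room temperature. Intracellular radioactivity was counted after NaOH lysis; 10 μM ALX5407 defined non-specific uptake. IC50 came from 10^−9–10^−5 M curves.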

Turning to `O=C(NC(c1cccc(-c2cccnc2)c1)C1(O)CCCC1)c1nccc(C(F)(F)F)c1Cl` (centres unmarked) [Compound 20, 3-chloro-N-{(1-hydroxycyclopentyl)[3-(pyridin-3-yl)phenyl]methyl}-4-(trifluoromethyl)pyridine-2-carboxamide], the IC50 (commonly the point on the concentration scale where inhibition reaches its midpoint) (GlyT1) was determined as 17 nM. `O=C(NC(c1cccc(F)c1Cl)[C@]1(O)CC[C@@H](F)CC1)c1nccnc1Cl` (single isomer, unassigned) [Compound 302, 3-chloro-N-[(2-chloro-3-fluorophenyl)(cis-4-fluoro-1-hydroxycyclohexyl)methyl]pyrazine-2-carboxamide] showed a half-inhibitory concentration (IC50) (GlyT1) of 5500 nM. Against the preceding compound, the IC50 is about 320-fold higher. On the same count and under the same terms, the figure for `O=C(NC(c1ccnc(Cl)c1)[C@]1(O)CC[C@@H](F)CC1)c1nccc(C(F)(F)F)c1Cl` (single isomer, unassigned) [Compound 258] is 3000 nM; for `CCn1cc(-c2cccc(C(NC(=O)c3cccc(Cl)c3C(F)(F)F)C3(O)CCC(F)(F)CC3)c2)cn1` (centres unmarked) [Compound 208, 3-chloro-N-{(4,4-difluoro-1-hydroxycyclohexyl)[3-(1-ethyl-1H-pyrazol-4-yl)phenyl]methyl}-2-(trifluoromethyl)benzamide] it is 1300 nM. In turn, `COc1cccc(C(NC(=O)c2nccc(C(F)(F)F)c2Cl)C2(O)CCCC2)c1` (single isomer, unassigned) [Compound 57, 3-chloro-N-[(1-hydroxycyclopentyl)(3-methoxyphenyl)methyl]-4-(trifluoromethyl)pyridine-2-carboxamide] showed an IC50 (GlyT1) of 150 nM.

As for `CS(=O)(=O)c1nc(C(F)(F)F)ccc1C(=O)NC(c1ccccc1Cl)C1(O)CCC(F)(F)CC1` (single isomer, unassigned) [Compound 406, N-[(2-chlorophenyl)(4,4-difluoro-1-hydroxycyclohexyl)methyl]-2-(methylsulfonyl)-6-(trifluoromethyl)pyridine-3-carboxamide], the half-inhibitory concentration (IC50) (human GlyT1) amounted to 320 nM. `O=C(N[C@@H](c1cccc(Br)c1)C1(O)CCCC1)c1nccc(C(F)(F)F)c1-n1nccn1` [Compound 70, N-[(S)-(3-bromophenyl)(1-hydroxycyclopentyl)methyl]-3-(2H-1,2,3-triazol-2-yl)-4-(trifluoromethyl)pyridine-2-carboxamide] yielded an IC50 (GlyT1) of 1200 nM. `O=C(NC(c1ccc(F)cc1Cl)C1(O)CCCC1)c1nccc(C(F)(F)F)c1Cl` (centres unmarked) [Compound 95, 3-chloro-N-[(2-chloro-4-fluorophenyl)(1-hydroxycyclopentyl)methyl]-4-(trifluoromethyl)pyridine-2-carboxamide] returned an IC50 (GlyT1) of 130 nM. Consider `CCn1cc(-c2cccc([C@H](NC(=O)c3cccc(C(F)(F)F)c3Cl)C3(O)CCCC3)c2)cn1` [Compound 74, 2-chloro-N-[(S)-[3-(1-ethyl-1H-pyrazol-4-yl)phenyl](1-hydroxycyclopentyl)methyl]-3-(trifluoromethyl)benzamide], for which the 50% inhibitory concentration (IC50) (GlyT1) worked out at 43 nM. Regarding `O=C(NC(c1ccccc1Cl)[C@]1(O)CC[C@@H](F)CC1)c1nccc(C(F)(F)F)c1Cl` (single isomer, unassigned) [Compound 210, 3-chloro-N-[(2-chlorophenyl)(cis-4-fluoro-1-hydroxycyclohexyl)methyl]-4-(trifluoromethyl)pyridine-2-carboxamide], inhibition (GlyT1) was half-maximal at 3200 nM (IC50). This IC50 lies about 74-fold higher than the previous one.

Compound `CCn1cc(-c2cccc(C(NC(=O)c3nccc(C(F)(F)F)c3Cl)C3(O)CCCC3)c2)cn1` (single isomer, unassigned) [Compound 14, 3-chloro-N-{[3-(1-ethyl-1H-pyraozl-4-yl)phenyl](1-hydroxycyclopentyl)methyl}-4-(trifluoromethyl)pyridine-2-carboxamide] yielded an IC50 (GlyT1) of 13 nM. On to `CS(=O)(=O)c1ccccc1C(=O)NC(c1cccc(F)c1Cl)[C@]1(O)CC[C@@H](F)CC1` (single isomer, unassigned) [Compound 281, N-[(2-chloro-3-fluorophenyl)(cis-4-fluoro-1-hydroxycyclohexyl)methyl]-2-(methylsulfonyl)benzamide], for which 2100 nM corresponded to half-maximal inhibition (GlyT1) (IC50). The same measure, in the same setting: the figure for `O=C(NC(c1cccc(F)c1Cl)[C@]1(O)CC[C@@H](F)CC1)c1cc(Cl)ccc1Cl` (single isomer, unassigned) [Compound 251, 2,5-dichloro-N-[(2-chloro-3-fluorophenyl)(cis-4-fluoro-1-hydroxycyclohexyl)methyl]benzamide] is 430 nM; for `O=C(NC(c1cccc(F)c1Cl)[C@]1(O)CC[C@@H](F)CC1)c1cc(-n2nccn2)ccc1Cl` (single isomer, unassigned) [Compound 336, 2-chloro-N-[(2-chloro-3-fluorophenyl)(cis-4-fluoro-1-hydroxycyclohexyl)methyl]-5-(2H-1,2,3-triazol-2-yl)benzamide] it is 690 nM; for `O=C(NC(c1cccc(F)c1Cl)[C@]1(O)CC[C@@H](F)CC1)c1ccc(C(F)(F)F)cc1-n1cnnn1` (single isomer, unassigned) [Compound 391, N-[(2-chloro-3-fluorophenyl)(cis-4-fluoro-1-hydroxycyclohexyl)methyl]-2-(1H-tetrazol-1-yl)-4-(trifluoromethyl)benzamide] it is 27 nM. With `O=C(NC(c1cccc(F)c1)C1(O)CCC1)c1nccc(C(F)(F)F)c1Cl` (single isomer, unassigned) [Compound 66, 3-chloro-N-[(3-fluorophenyl)(1-hydroxycyclobutyl)methyl]-4-(trifluoromethyl)pyridine-2-carboxamide], for the setting “GlyT1”, half-maximal inhibition (IC50) was put at 690 nM. This IC50 lies about 26-fold higher than the previous one. The compound `CCn1cc(-c2cccc(C(NC(=O)c3nccc(C(F)(F)F)c3Cl)C3(O)CCC(F)(F)CC3)c2)cn1` (single isomer, unassigned) [Compound 91, 3-chloro-N-{(4,4-difluoro-1-hydroxycyclohexyl)[3-(1-ethyl-1H-pyrazol-4-yl)phenyl]methyl}-4-(trifluoromethyl)pyridine-2-carboxamide] showed a half-inhibitory concentration (IC50) (GlyT1) of 3800 nM. This IC50 is about 5.5-fold higher than that of the compound before. The compound `O=C(NC(c1cccnc1)[C@]1(O)CC[C@@H](F)CC1)c1nccc(C(F)(F)F)c1Cl` (single isomer, unassigned) [Compound 265, 3-chloro-N-[(cis-4-fluoro-1-hydroxycyclohexyl)(pyridin-3-yl)methyl]-4-(trifluoromethyl)pyridine-2-carboxamide] gave an IC50 (GlyT1) of 890 nM. `O=C(NC(c1cc(Cl)ccn1)C1(O)CCC(F)(F)CC1)c1ccc(C(F)(F)F)nc1Cl` (single isomer, unassigned) [Compound 350, 2-chloro-N-[(4-chloropyridin-2-yl)(4,4-difluoro-1-hydroxycyclohexyl)methyl]-6-(trifluoromethyl)pyridine-3-carboxamide] returned a 50% inhibitory concentration (IC50) (GlyT1) of 620 nM. The same measure, in the same setting: to `Cc1ccccc1C(NC(=O)c1nccc(C(F)(F)F)c1Cl)C1(O)CCCC1` (centres unmarked) [Compound 47, 3-chloro-N-[(1-hydroxycyclopentyl)(2-methylphenyl)methyl]-4-(trifluoromethyl)pyridine-2-carboxamide] belongs 280 nM; to `Cc1ccccc1C(=O)NC(c1cccc(F)c1Cl)[C@]1(O)CC[C@@H](F)CC1` (single isomer, unassigned) [Compound 267, N-[(2-chloro-3-fluorophenyl)(cis-4-fluoro-1-hydroxycyclohexyl)methyl]-2-methylbenzamide], 1900 nM; to `O=C(NC(c1cccc(Cl)c1)C1(O)CCCC1)c1nccc(C(F)(F)F)c1Cl` (single isomer, unassigned) [Compound 54, 3-chloro-N-[(3-chlorophenyl)(1-hydroxycyclopentyl)methyl]-4-(trifluoromethyl)pyridine-2-carboxamide], 57 nM. Same read-out and setting: to `CCn1cc(-c2cccc(C(NC(=O)c3nccc(C(F)(F)F)c3Cl)C3(O)CCCCC3)c2)cn1` (centres unmarked) [Compound 15, 3-chloro-N-{[3-(1-ethyl-1H-pyrazol-4-yl)phenyl](1-hydroxycyclohexyl)methyl}-4-(trifluoromethyl)pyridine-2-carboxamide] belongs 8.5 nM. The same measure, in the same setting: the figure for `O=C(NC(c1cccc(Cl)n1)[C@]1(O)CC[C@@H](F)CC1)c1nccc(C(F)F)c1Cl` (single isomer, unassigned) [Compound 328, 3-chloro-N-[(6-chloropyridin-2-yl)(cis-4-fluoro-1-hydroxycyclohexyl)methyl]-4-(difluoromethyl)pyridine-2-carboxamide] is 200 nM. Compound `O=C(NC(c1ccccc1F)C1(O)CCCC1)c1nccc(C(F)(F)F)c1Cl` (single isomer, unassigned) [Compound 61, 3-chloro-N-[(2-fluorophenyl)(1-hydroxycyclopentyl)methyl]-4-(trifluoromethyl)pyridine-2-carboxamide] registered a 50% inhibitory concentration (IC50) (GlyT1) of 3000 nM. Turning to `O=C(NC(c1ccccc1Cl)C1(O)CCC(F)(F)CC1)c1ncc(C(F)(F)F)cc1-n1nccn1` (single isomer, unassigned) [Compound 407, N-[(2-chlorophenyl)(4,4-difluoro-1-hydroxycyclohexyl)methyl]-3-(2H-1,2,3-triazol-2-yl)-5-(trifluoromethyl)pyridine-2-carboxamide], half-maximal inhibition (human GlyT1) (IC50) required 1000 nM.

Source of the values: US20160130278A1 (TAISHO PHARMACEUTICAL CO., LTD, priority 2013, published 2016).
